Measurements reported in ChEMBL document CHEMBL3045259, “Synthesis, molecular docking studies, and in vitro screening of sulfanilamide-thiourea hybrids as antimicrobial and urease inhibitors” (Med Chem Res, 2013).
In brackets after ≈: the same amount, converted by molar mass. Activity calls are given as the source filed them. The calls are words filed in the database; no cut-off is given here.

Key:
Escherichia coli = assay: Antibacterial activity against Escherichia coli assessed as growth inhibition after 24 hr by NCCLS broth micro-dilution method; assay type: functional
Urease = Urease (Canavalia ensiformis, UniProt P07374); assay: (§1) Inhibition of Canavalia ensiformis (jack bean) urease assessed as release of ammonia after 30 min by indophenol method
Shigella flexneri = assay: Antibacterial activity against Shigella flexneri assessed as growth inhibition after 24 hr by NCCLS broth micro-dilution method; assay type: functional
Staphylococcus aureus = assay: Antibacterial activity against Staphylococcus aureus assessed as growth inhibition after 24 hr by NCCLS broth micro-dilution method; assay type: functional
Bacillus subtilis = assay: Antibacterial activity against Bacillus subtilis assessed as growth inhibition after 24 hr by NCCLS broth micro-dilution method; assay type: functional
Aspergillus = assay: Antifungal activity against Aspergillus […] assessed as inhibition of fungal hyphae extension after 24 to 48 hr by agar well diffusion method; assay type: functional
Aspergillus flavus = assay: Antifungal activity against Aspergillus flavus assessed as inhibition of fungal hyphae extension after 24 to 48 hr by agar well diffusion method; assay type: functional
[1] = target: Urease (Canavalia ensiformis) (UniProt P07374); assay: Ratio of thiourea Ki to compound Ki for Canavalia ensiformis (jack bean) urease
Aspergillus niger = assay: Antifungal activity against Aspergillus niger assessed as inhibition of fungal hyphae extension after 24 to 48 hr by agar well diffusion method; assay type: functional
[2] = target: Urease (Canavalia ensiformis) (UniProt P07374); assay: as §1

Urease, sequence (P07374 whole entry): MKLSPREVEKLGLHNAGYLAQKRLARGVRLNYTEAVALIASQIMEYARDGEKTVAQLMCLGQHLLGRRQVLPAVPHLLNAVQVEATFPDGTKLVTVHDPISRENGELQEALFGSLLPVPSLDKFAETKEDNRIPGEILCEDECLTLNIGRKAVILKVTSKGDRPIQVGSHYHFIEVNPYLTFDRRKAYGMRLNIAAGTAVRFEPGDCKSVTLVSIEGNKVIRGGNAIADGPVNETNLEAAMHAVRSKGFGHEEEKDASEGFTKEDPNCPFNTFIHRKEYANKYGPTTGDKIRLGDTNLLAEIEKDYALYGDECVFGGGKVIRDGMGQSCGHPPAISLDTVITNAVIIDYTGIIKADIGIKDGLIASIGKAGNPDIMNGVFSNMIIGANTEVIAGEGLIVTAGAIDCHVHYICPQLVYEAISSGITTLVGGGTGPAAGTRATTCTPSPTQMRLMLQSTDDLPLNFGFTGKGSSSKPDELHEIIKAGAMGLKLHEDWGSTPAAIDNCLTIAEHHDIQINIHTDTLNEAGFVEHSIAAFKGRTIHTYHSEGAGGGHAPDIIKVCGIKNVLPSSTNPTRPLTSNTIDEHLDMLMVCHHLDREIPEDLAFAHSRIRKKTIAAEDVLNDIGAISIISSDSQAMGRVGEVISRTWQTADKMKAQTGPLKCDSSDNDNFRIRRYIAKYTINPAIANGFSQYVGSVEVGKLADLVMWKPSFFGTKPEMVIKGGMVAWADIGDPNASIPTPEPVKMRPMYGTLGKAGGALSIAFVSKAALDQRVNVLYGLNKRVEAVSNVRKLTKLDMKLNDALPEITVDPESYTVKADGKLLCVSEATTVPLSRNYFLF
Urease (Canavalia ensiformis), sequence (P07374 whole entry, looked up, the tested form may be a part): as the sequence (P07374 whole entry) above

SMILES	MIC (Escherichia coli) [mg/L]	Ki (Urease) [µM]	MIC (Shigella flexneri) [mg/L]	MIC (Staphylococcus aureus) [mg/L]	MIC (Bacillus subtilis) [mg/L]	inhibition (Aspergillus)	inhibition zone (IZ) (Aspergillus flavus) [mm]	Ratio Ki [1]	inhibition zone (IZ) (Aspergillus niger) [mm]	inhibition zone (IZ) (Aspergillus) [mm]	inhibition (Aspergillus flavus)	inhibition (Aspergillus niger)	inhibition [2] [%]
Cc1ccc(C(=O)NC(=S)Nc2ccc(S(N)(=O)=O)cc2)cc1	0.313 (≈ 0.896 µM)	4.32	0.156 (≈ 0.446 µM)	0.313 (≈ 0.896 µM)	0.313 (≈ 0.896 µM)	–	–	–	–	–	–	–	–
COc1ccc(C(=O)NC(=S)Nc2ccc(S(N)(=O)=O)cc2)c(OC)c1OC	0.313 (≈ 0.736 µM)	1.34	0.313 (≈ 0.736 µM)	0.156 (≈ 0.367 µM)	0.156 (≈ 0.367 µM)	–	–	–	–	–	–	–	–
NS(=O)(=O)c1ccc(NC(=S)NC(=O)c2cc([N+](=O)[O-])ccc2Cl)cc1	0.313 (≈ 0.754 µM)	0.44	0.313 (≈ 0.754 µM)	0.156 (≈ 0.376 µM)	0.156 (≈ 0.376 µM)	inactive	2.1	50	1.6	–	–	–	–
COc1cccc(C(=O)NC(=S)Nc2ccc(S(N)(=O)=O)cc2)c1OC	0.313 (≈ 0.791 µM)	0.82	0.156 (≈ 0.394 µM)	0.313 (≈ 0.791 µM)	0.313 (≈ 0.791 µM)	–	–	–	–	0.9	inactive	inactive	–
NS(=O)(=O)c1ccc(NC(=S)NC(=O)Cc2ccccc2)cc1	0.313 (≈ 0.896 µM)	1.6	0.313 (≈ 0.896 µM)	0.313 (≈ 0.896 µM)	0.313 (≈ 0.896 µM)	–	–	–	–	–	–	–	–
CN(C/C=C/C#CC(C)(C)C)Cc1cccc2ccccc12 [TERBINAFINE]	–	–	–	–	–	–	5.7	–	5.3	5.2	–	–	–
NS(=O)(=O)c1ccc(NC(=S)NC(=O)c2ccc(Cl)cc2[N+](=O)[O-])cc1	0.156 (≈ 0.376 µM)	5.59	0.156 (≈ 0.376 µM)	0.156 (≈ 0.376 µM)	0.156 (≈ 0.376 µM)	–	–	–	–	–	–	–	–
NS(=O)(=O)c1ccc(NC(=S)NC(=O)c2cccc([N+](=O)[O-])c2)cc1	0.313 (≈ 0.823 µM)	0.45	0.313 (≈ 0.823 µM)	0.313 (≈ 0.823 µM)	0.313 (≈ 0.823 µM)	–	–	–	–	–	–	–	–
NS(=O)(=O)c1ccc(NC(=S)NC(=O)c2ccc(Cl)cc2Cl)cc1	0.313 (≈ 0.774 µM)	1.91	0.313 (≈ 0.774 µM)	0.313 (≈ 0.774 µM)	0.313 (≈ 0.774 µM)	inactive	–	–	0.8	–	inactive	–	–
NS(=O)(=O)c1ccc(NC(=S)NC(=O)c2cccc(Cl)c2)cc1	0.156 (≈ 0.422 µM)	1.5	0.156 (≈ 0.422 µM)	0.156 (≈ 0.422 µM)	0.156 (≈ 0.422 µM)	–	–	–	–	–	–	–	–
NS(=O)(=O)c1ccc(NC(=S)NC(=O)c2ccco2)cc1	0.313 (≈ 0.962 µM)	1.14	0.313 (≈ 0.962 µM)	0.625 (≈ 1.92 µM)	0.625 (≈ 1.92 µM)	–	–	–	–	–	–	–	–
NS(=O)(=O)c1ccc(NC(=S)NC(=O)c2cccc(F)c2)cc1	0.313 (≈ 0.886 µM)	1.49	0.156 (≈ 0.441 µM)	0.313 (≈ 0.886 µM)	0.313 (≈ 0.886 µM)	inactive	2.8	–	2.4	–	–	–	–
NS(=O)(=O)c1ccc(NC(=S)NC(=O)c2ccc(Cl)cc2)cc1	0.313 (≈ 0.846 µM)	0.2	0.313 (≈ 0.846 µM)	0.156 (≈ 0.422 µM)	0.156 (≈ 0.422 µM)	–	–	100	–	–	–	–	–
NC(N)=S [THIOUREA]	–	23	–	–	–	–	–	–	–	–	–	–	–
Cc1ccccc1C(=O)NC(=S)Nc1ccc(S(N)(=O)=O)cc1	0.313 (≈ 0.896 µM)	–	0.313 (≈ 0.896 µM)	0.625 (≈ 1.79 µM)	0.625 (≈ 1.79 µM)	–	–	–	–	–	–	–	53
COc1cccc(C(=O)NC(=S)Nc2ccc(S(N)(=O)=O)cc2)c1	0.313 (≈ 0.857 µM)	0.65	0.313 (≈ 0.857 µM)	0.313 (≈ 0.857 µM)	0.313 (≈ 0.857 µM)	–	–	–	–	–	–	–	–
O=C(O)c1cn(C2CC2)c2cc(N3CCNCC3)c(F)cc2c1=O [CIPROFLOXACIN]	0.156 (≈ 0.471 µM)	–	0.313 (≈ 0.945 µM)	0.156 (≈ 0.471 µM)	0.625 (≈ 1.89 µM)	–	–	–	–	–	–	–	–
Cc1cccc(C(=O)NC(=S)Nc2ccc(S(N)(=O)=O)cc2)c1	1.25 (≈ 3.58 µM)	0.89	0.313 (≈ 0.896 µM)	0.625 (≈ 1.79 µM)	0.313 (≈ 0.896 µM)	–	–	–	–	–	–	–	–
COc1cc(OC)cc(C(=O)NC(=S)Nc2ccc(S(N)(=O)=O)cc2)c1	0.313 (≈ 0.791 µM)	1.21	0.313 (≈ 0.791 µM)	0.313 (≈ 0.791 µM)	0.313 (≈ 0.791 µM)	–	1.9	–	1.5	2.7	–	–	–
CCC(CC(=O)NC(=S)Nc1ccc(S(N)(=O)=O)cc1)c1ccccc1 (stereo not drawn)	1.25 (≈ 3.19 µM)	1.23	0.313 (≈ 0.799 µM)	0.625 (≈ 1.6 µM)	0.313 (≈ 0.799 µM)	–	–	–	–	–	–	–	–
CCCCCCCCCCCC(=O)NC(=S)Nc1ccc(S(N)(=O)=O)cc1	0.313 (≈ 0.757 µM)	1.3	0.313 (≈ 0.757 µM)	0.313 (≈ 0.757 µM)	0.313 (≈ 0.757 µM)	–	5.1	–	4.6	4.9	–	–	–
NS(=O)(=O)c1ccc(NC(=S)NC(=O)c2ccc([N+](=O)[O-])cc2)cc1	0.313 (≈ 0.823 µM)	7.5	0.313 (≈ 0.823 µM)	0.156 (≈ 0.41 µM)	0.156 (≈ 0.41 µM)	–	–	–	–	–	–	–	–
